# Conditions: buffer; pH 7.4; 200.0 µM
row,Compound,solubility kinetic
1,O=C(Cc1ccc([N+](=O)[O-])cc1)NCc1ccccn1,> 40.7 µg/mL
2,CC(=O)Nc1ccc(S(=O)(=O)Nc2cc(Cl)ccc2N2CCOCC2)cc1,> 61.5 µg/mL
3,COc1ccc(C(CNC(=O)c2cccc(S(=O)(=O)N3CCc4ccccc43)c2)N(C)C)cc1 (centres undefined),39.3 µg/mL
4,COC(=O)c1cc(CSC(=N)N)ccc1OCCC(C)C.Cl,> 52 µg/mL
5,Cc1ccccc1CN(C)C(=O)CNC(=O)c1ccc2ccccc2c1,31.1 µg/mL
6,COC(=O)c1ccc(CNC(=O)c2coc3ccccc3c2=O)cc1,3.7 µg/mL
7,COc1ccc(Cl)cc1NC(=O)CN(C)C(=O)C1CC1,> 44.5 µg/mL
8,COc1ccc(CC(=O)Nc2cc(S(=O)(=O)Nc3ccc(OC)cc3)ccc2OC)cc1,14.6 µg/mL
9,CC(=O)Nc1ccc(S(=O)(=O)NCc2ccc(C)n2C)cc1,> 48.2 µg/mL
10,Cc1ccc(NC(=O)C2Oc3ccccc3OC2C)cc1 (centres undefined),28 µg/mL
11,Cc1ccc(/C=C/C(=O)NN2CCN(C)CC2)cc1,> 38.9 µg/mL
12,O=C(NCc1ccccc1)C(=O)Nc1nc(-c2ccccc2)cs1,< 0.2 µg/mL
13,COc1ccc(OCC(=O)NCCNC(=O)c2cccnc2)cc1,47.8 µg/mL
14,Cc1cc(C)cc(OCc2ccc(C(=O)NC3CCOC3=O)o2)c1 (centres undefined),> 49.4 µg/mL
15,Cc1ccccc1N1C(=O)C2CCCN2C1=S (centres undefined),> 36.9 µg/mL
16,O=C(OCc1cccc(C(F)(F)F)c1)c1ccc[nH]c1=O,> 44.6 µg/mL
17,O=C1OC(c2ccc3c(c2)OCO3)=N/C1=C\c1ccc(C(=O)O)cc1,> 50.6 µg/mL
18,CC1CCN(S(=O)(=O)c2cnc[nH]2)CC1,> 34.4 µg/mL
19,COc1ccc(-c2nc(S(=O)(=O)c3ccccc3)c(NCCCN3CCOCC3)o2)cc1,67.8 µg/mL
20,COC(=O)c1ccc(OCC(O)CN2CCOCC2)cc1 (centres undefined),> 44.3 µg/mL
21,C=CCNC(=S)N1CCN(S(=O)(=O)c2ccc(C)cc2)CC1,> 50.9 µg/mL
22,O=C(Cc1c(F)cccc1Cl)Nc1ncc([N+](=O)[O-])s1,16.7 µg/mL
23,COC(=O)C1CCN(c2ccc([N+](=O)[O-])cc2[N+](=O)[O-])CC1,> 46.4 µg/mL
24,COc1ccc(Cc2nc(-c3cccnc3)no2)cc1OC,41 µg/mL

row,Compound,solubility kinetic
1,O=C(/C=C/c1ccc(Cl)cc1)Nc1nccs1,1.1 µg/mL
2,CC(C)Sc1cc(Cl)nc(NC(=O)Nc2ccccc2)n1,0.4 µg/mL
3,Cc1cc(C)c(S(=O)(=O)c2ccccc2F)c(=O)[nH]1,> 42.2 µg/mL
4,S=C(NCCCc1ccccc1)NC1CCCCC1,22.5 µg/mL
5,COc1cc(C(=O)NCC2CCCCC2)cc(OC)c1OC,12.8 µg/mL
6,O=C(O)/C=C/c1cn(-c2ccccc2)nc1-c1ccccc1,> 43.5 µg/mL
7,CC1Cc2ccccc2N1Cc1cccc(S(=O)(=O)N(C)C)c1 (centres undefined),9.4 µg/mL
8,CN(CC(=O)N1CCCC1)S(=O)(=O)c1cccc(Cl)c1,> 47.5 µg/mL
9,CCCc1nc2ccccc2c(C(=O)OCC(=O)NC2CC2)c1CC,> 51.1 µg/mL
10,Cc1cc[n+](CC2OCc3ccccc3CO2)cc1.[Br-],> 50.4 µg/mL
11,CSc1ccc(CN(C)C(=O)c2cc(=O)c3ccccc3o2)cc1,> 50.9 µg/mL
12,CCN(CC)C(=O)N1CCN(S(=O)(=O)c2ccccc2)CC1,> 48.8 µg/mL
13,CC1CCN(CC(=O)Nc2nccs2)CC1,> 35.9 µg/mL
14,CC(=O)NC(=S)Nc1ccccc1F,> 31.8 µg/mL
15,c1cncc(C2Nc3cccc4cccc(c34)N2)c1,> 37.1 µg/mL
16,O=C(Nc1nccs1)c1ccc2ccccc2c1,1.3 µg/mL
17,Cc1nn(-c2ccccc2)c(Cl)c1C(=O)N1CCN(C)CC1,> 47.8 µg/mL
18,Cc1ccccc1CNc1ncnc2cc(Cl)ccc12,0.5 µg/mL
19,CCC1CCC2(CC1)NC(=O)N(CC(=O)NCc1ccc(Cl)cc1)C2=O (centres undefined),3.7 µg/mL
20,c1csc(-c2nc(-c3ccc(-c4ccon4)s3)no2)c1,0.5 µg/mL
21,Cl.O=C(OCCN1CCOCC1)c1ccccc1Cl,> 45.9 µg/mL
22,Cc1cc(C)c(S(=O)(=O)Nc2ccncc2)cc1C,19.2 µg/mL
23,CCOc1cccc(CNc2ccc(O)cc2)c1OCc1ccc(Cl)cc1,> 57.6 µg/mL
24,COc1cccc(NC(=S)N2CCN(C)CC2)c1,> 39.8 µg/mL

row,Compound,solubility kinetic
1,Cc1ccc(OCC(O)CN2CCOCC2)cc1 (centres undefined),33.4 µg/mL
2,CC(=O)Nc1ccc(S(=O)(=O)Nc2ccc(C)c([N+](=O)[O-])c2)cc1,> 52.4 µg/mL
3,O=C(Nc1nccs1)c1ccccc1Br,6.2 µg/mL
4,CN1CCN(Cc2cc3c(cc2[N+](=O)[O-])OCO3)CC1,38.3 µg/mL
5,CSc1nsc(SCC(=O)Nc2ccccc2F)n1,38 µg/mL
6,C/C(=C\c1ccccc1)CN1CCN(C(C)C)C(CCO)C1 (centres undefined),> 45.4 µg/mL
7,COc1ccc(CCNC(=O)c2cc3c(C)nccc3[nH]c2=O)cc1OC,17.1 µg/mL
8,Cc1cccc(-c2noc(CCC(=O)Nc3ccc(C(N)=O)cc3)n2)c1,0.5 µg/mL
9,O=c1c2ccccc2nc2n1C(CSc1ccccc1)CS2 (centres undefined),> 49 µg/mL
10,CC1CCCCC1NC(=S)NC(=O)c1cccs1 (centres undefined),5.5 µg/mL
11,Cc1nc(NC(=O)c2ccco2)sc1C(=O)O,> 37.8 µg/mL
12,CNc1nc(N)c([N+](=O)[O-])c(N2CCCCCC2)n1,39.5 µg/mL
13,CCN(C(=O)CSc1nnc(-c2ccc(F)cc2)n1C)C1CCS(=O)(=O)C1 (centres undefined),> 61.9 µg/mL
14,O=C(N1CCOCC1)N1CCN(S(=O)(=O)c2ccc(F)cc2)CC1,> 53.6 µg/mL
15,CC1=C([N+](=O)[O-])C(c2ccc(Cl)cc2)NC(=O)N1 (centres undefined),> 40.2 µg/mL
16,COc1ccc(C(=O)NCCc2ccccc2)cc1OC,40.1 µg/mL
17,Cc1nn(-c2ccc(C(=O)O)cc2)c2c1C(=O)CC(C)(C)C2,> 44.8 µg/mL
18,CCOC(=O)C1=C(COC(=O)/C=C/c2ccco2)NC(=O)NC1C (centres undefined),23.1 µg/mL
19,Fc1ccccc1NC(=S)NCCc1ccc(Cl)cc1,39 µg/mL
20,Cc1cc(=O)oc2cc(N3C(=O)CC(Cc4ccccc4)C3=O)ccc12 (centres undefined),8.3 µg/mL
21,CCOC(=O)c1ccc2c(c1)N(CC)C(=O)c1ccccc1S2,13.2 µg/mL
22,CNC(=S)NC1CC2CCCC(C1)N2Cc1ccccc1OC (centres undefined),> 50 µg/mL
23,CC(C)c1nc(Cl)c(C#N)c2c1CCC2,4.3 µg/mL
24,O=C(CSc1ccccc1)NCCCc1ccccc1,> 42.8 µg/mL

row,Compound,solubility kinetic
1,O=c1[nH]c2c(c(=O)[nH]1)CCC2,> 22.8 µg/mL
2,COC(=O)C(C)Oc1ccc(-c2nccc(-c3ccc(F)cc3)n2)cc1 (centres undefined),2.6 µg/mL
3,CN1CCN(c2ccc(Cl)cc2NC(=O)/C=C/c2cccc(F)c2)CC1,34.4 µg/mL
4,CC(CN1CCCC1)OC(=O)c1ccc(F)cc1.Cl (centres undefined),> 43.2 µg/mL
5,CC(C)c1nc2sc3c(=O)[nH]cnc3c2c2c1CCCC2,< 0.2 µg/mL
6,C#CCOC(=O)Nc1ccc(OCC(F)(F)F)nc1,19.2 µg/mL
7,NC(=O)C1CCN(C(=O)CCn2c(=O)oc3ccccc32)CC1,> 47.6 µg/mL
8,O=C1CC(C(=O)Nc2cccc(F)c2)n2c(nc3ccccc32)N1 (centres undefined),0.9 µg/mL
9,CC1CN(C2=N/C(=C/c3ccc4c(c3)OCO4)C(=O)N2)CC(C)O1 (centres undefined),24.7 µg/mL
10,c1ccc(CCN2CN=C(Nc3nc4ccccc4s3)NC2)cc1,< 0.1 µg/mL
11,Cc1ccnc(NCc2cc(C)ccc2O)c1,6 µg/mL
12,COC(=O)c1ccc(NC(=S)N2CCN(CCO)CC2)cc1,> 48.5 µg/mL
13,CCOc1cc(C(N)=O)cc(Cl)c1OCC,34.6 µg/mL
14,O=C(Nc1cccnc1)Nc1cccc(F)c1,> 34.7 µg/mL
15,Cc1ccc(NC(=O)CCN2C(=O)c3ccccc3C2=O)cc1C,4.6 µg/mL
16,Cc1ccc(CNC(=O)COC(=O)c2cnc(C)cn2)cc1,> 44.9 µg/mL
17,Cn1c(=O)c([N+](=O)[O-])c(-n2cnc3ccccc32)c2ccccc21,> 48 µg/mL
18,CC(=O)N(Cc1ccccc1)c1c(N)nc(N)[nH]c1=O,> 41 µg/mL
19,Cc1ccc(C(=O)/C=C/c2cc(C#N)n(C)c2C)cc1,1.2 µg/mL
20,O=C(COC(=O)/C=C/c1ccc([N+](=O)[O-])cc1)NC(=O)NC1CCCCC1,3.7 µg/mL
21,Fc1ccc2[nH]c3c(c2c1)CN(C(=S)NCc1ccccc1)CC3,5 µg/mL
22,Cc1nn(CC(=O)NC2(C#N)CCCCC2)c(C)c1[N+](=O)[O-],> 45.8 µg/mL
23,O=C(CS(=O)CC(=O)NC12CC3CC(CC(C3)C1)C2)Nc1ccc(F)cc1 (centres undefined),16.2 µg/mL
24,CCC(CC)C(=O)Nc1ccc(C(=O)Nc2cc(C)on2)cc1,5.7 µg/mL

row,Compound,solubility kinetic
1,COCCn1c(SCc2ccccc2)nc2c1c(=O)[nH]c(=O)n2C,> 52 µg/mL
2,Cc1nc2cc(N)ccc2n1C1CCCCC1.Cl,> 45.3 µg/mL
3,CCCCC1(C)NC(=O)N(CC(=O)Nc2ccc(Cl)cc2C)C1=O (centres undefined),48.7 µg/mL
4,COc1ccc(C(CC(=O)O)N2Cc3ccccc3C2=O)cc1OC (centres undefined),> 51.2 µg/mL
5,Cc1c(Cl)cccc1NC(=O)Cn1c(-c2ccc(F)cc2)noc1=O,4 µg/mL
6,COc1ccc(N=Cc2nc(-c3ccccc3)oc2OC(C)=O)cc1,1.6 µg/mL
7,CC(NC1c2ccccc2-c2ccccc21)c1ccccc1 (centres undefined),< 0.6 µg/mL
8,O=S(=O)(c1cccc2cccnc12)N1CCCCC1,> 41.5 µg/mL
9,Cc1noc(C)c1CSCC(=O)Nc1ccc(C#N)c(Cl)c1,> 50.4 µg/mL
10,CCN(CC)S(=O)(=O)c1ccc(OC)c(N)c1,35.1 µg/mL
11,C=CC(=O)NC(C)(C)CCN1CCOCC1,> 33.9 µg/mL
12,O=C(/C=C/c1ccc(Cl)cc1)NC1CCS(=O)(=O)C1 (centres undefined),> 45 µg/mL
13,CCOc1ncccc1C(=O)Nc1nc(C(C)(C)C)cs1,0.6 µg/mL
14,Nn1c(SCC(=O)Nc2ccc(N3CCOCC3)cc2)nnc1C1CC1,> 56.2 µg/mL
15,CCn1c(NC(=O)C(C)C)c(-c2ccccc2)c(=O)c2ccccc21,30.9 µg/mL
16,CC1CCCCN1S(=O)(=O)c1ccc(C(=O)N2CCOCC2)cc1 (centres undefined),> 52.9 µg/mL
17,Cc1cc(=O)[nH]c(SCC(=O)c2ccc(O)c(O)c2)n1,> 43.8 µg/mL
18,CN=C1S/C(=C\c2c(OC)cc(OC)cc2OC)C(=O)N1C,1.1 µg/mL
19,Cc1nc(Cl)sc1C(=O)Nc1ccc(C(C)(C)C)cc1,11.3 µg/mL
20,Cc1cc(=O)n(CC(=O)O)c2ccccc12,> 32.6 µg/mL
21,CCOC(=O)C1=C(c2ccccc2)NC(=O)NC1c1ccsc1 (centres undefined),43.9 µg/mL
22,CCOc1ccccc1NC(=O)c1ccc([N+](=O)[O-])cc1,2.7 µg/mL
23,O=C(COC(=O)c1ccccc1F)NCc1ccc2c(c1)OCO2,18.1 µg/mL

# Source: PubChem BioAssay AID1996
